Literature values in patent publication US10736868B2, “Compositions comprising rumenic acid-rich conjugated linoleic acid for brain health” (STEPAN SPECIALTY PRODUCTS, LLC, priority 2016, dated 2020).
Read-outs that look alike come from different tables or passages of the source.

What was measured:
cognitive function [1] = conditions: hypertensive older adults
PPARγ [2] = target: T1, PPARγ (Homo sapiens, UniProt P37231); conditions: human epithelial cells
T1 construct: host or cells: human epithelial cells
T1 sequence (P37231 1-505): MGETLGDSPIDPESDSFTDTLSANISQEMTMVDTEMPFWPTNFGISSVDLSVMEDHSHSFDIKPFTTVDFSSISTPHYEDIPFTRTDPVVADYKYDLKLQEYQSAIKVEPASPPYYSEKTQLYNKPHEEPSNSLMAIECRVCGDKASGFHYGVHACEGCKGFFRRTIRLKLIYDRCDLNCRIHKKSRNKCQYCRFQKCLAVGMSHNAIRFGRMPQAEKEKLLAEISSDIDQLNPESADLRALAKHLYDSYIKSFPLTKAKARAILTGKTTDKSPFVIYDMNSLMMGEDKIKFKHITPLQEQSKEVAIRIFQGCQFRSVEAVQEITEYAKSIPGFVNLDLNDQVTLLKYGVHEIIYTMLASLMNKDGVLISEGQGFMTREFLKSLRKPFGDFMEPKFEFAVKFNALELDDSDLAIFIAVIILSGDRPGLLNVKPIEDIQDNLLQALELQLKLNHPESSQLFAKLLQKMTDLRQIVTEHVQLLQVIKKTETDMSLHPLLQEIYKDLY

PPARγ [3] = target: T2, PPARγ (Mus musculus, UniProt P37238); conditions: mouse macrophage cells
T2 construct: host or cells: mouse macrophage cells
T2 sequence (P37238 1-505): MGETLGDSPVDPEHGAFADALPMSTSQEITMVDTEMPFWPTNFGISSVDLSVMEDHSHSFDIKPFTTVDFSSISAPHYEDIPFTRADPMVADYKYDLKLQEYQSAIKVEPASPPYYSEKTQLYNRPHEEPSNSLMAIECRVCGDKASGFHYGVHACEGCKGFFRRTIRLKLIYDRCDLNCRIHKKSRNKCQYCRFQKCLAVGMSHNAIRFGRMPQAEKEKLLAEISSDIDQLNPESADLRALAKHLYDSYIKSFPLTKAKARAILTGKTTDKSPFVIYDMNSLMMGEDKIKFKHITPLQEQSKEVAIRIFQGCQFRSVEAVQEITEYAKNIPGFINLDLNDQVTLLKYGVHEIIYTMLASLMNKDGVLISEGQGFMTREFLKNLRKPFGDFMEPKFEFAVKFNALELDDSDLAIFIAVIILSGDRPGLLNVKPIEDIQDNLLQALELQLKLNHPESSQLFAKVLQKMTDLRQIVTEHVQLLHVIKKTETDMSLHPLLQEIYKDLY

[4] = system: allergic responses mediated by inflammation; conditions: 8 weeks; young men and women with birch pollen allergy
cognitive function [5] = conditions: hypertensive older adults; remark: listed apart in the source

CCCCC(=O)N(Cc1ccc(-c2ccccc2-c2nnn[nH]2)cc1)[C@H](C(=O)O)C(C)C [valsartan]
identification, verbal fluency, or word list recognition (cognitive function [1]): did not influence | word list memory and recall (cognitive function [1]): improved

CCCCCC/C=C/C=C\CCCCCCCC(=O)O [RA, cis-9, trans-11 linoleic acid]
inflammatory responses via activation of PPARγ (PPARγ [2]): reduced | PPARγ activation (PPARγ [3]): activated | allergic responses mediated by inflammation [4]: reduced

CCCCc1nc(Cl)c(CO)n1Cc1ccc(-c2ccccc2-c2nn[nH]n2)cc1 [losartan]
verbal fluency (cognitive function [5]): not | word list memory and recall (cognitive function [5]): improved
